Measurements reported in patent US8691800B2, “Quinoline derivatives as antibacterial agents” (Janssen Pharmaceutica N.V., priority 2005, dated 2014).
In brackets after ≈: the same amount, converted by molar mass.

Legend:
[1] = tested on: Staphylococcus aureus (ATCC29213); assay: Microtitre plate assay, IC90 for bacterial growth; format: cell-based; settings: 90% inhibitory concentration for bacterial growth, 24 hours at 37° C., resazurin; for IC90: Staphylococcus aureus, ATCC29213, 24 h, read-out: IC90 STA 29213
Description: (§1) The bacteria used in this study were grown overnight in flasks containing 100 ml Mueller-Hinton Broth (Becton Dickinson—cat. no. 275730) in sterile de-ionized water, with shaking, at 37° C. Stocks (0.5 ml/tube) were stored at 70° C. until use. Bacteria titrations were performed in microtiter plates and colony forming units (CFUs) were determined. In general, an inoculum level of approximately 100 CFUs was used for susceptibility testing.
(§2) Anti bacterial Susceptibility Testing: IC90 Determination
(§3) Flat-bottom, sterile 96-well plastic microtiter plates were filled with 180 μl of sterile deionized water, supplemented with 0.25% BSA. Subsequently, stock solutions (7.8× final test concentration) of compounds were added in 45 μl volumes in column 2. Serial five-fold dilutions (45 μl in 180 μl) were made directly in the microtiter plates from column 2 to reach column 11. Untreated control samples with (column 1) and without (column 12) inoculum were included in each microtiter plate. Depending on the bacteria type, approximately 10 to 60 CFU per well of bacteria inoculum (100 TCID50), in a volume of 100 μl in 2.8× Mueller-Hinton broth medium, was added to the rows A to H, except column 12. The same volume of broth medium without inoculum was added to column 12 in row A to H. The cultures were incubated at 37° C. for 24 hours under a normal atmosphere (incubator with open air valve and continuous ventilation). At the end of incubation, one day after inoculation, the bacterial growth was quantitated fluorometrically. Therefore resazurin (0.6 mg/ml) was added in a volume of 20 μl to all wells 3 hours after inoculation, and the plates were re-incubated overnight. A change in colour from blue to pink indicated the growth of bacteria. The fluorescence was read in a computer-controlled fluorometer (Cytofluor Biosearch) at an excitation wavelength of 530 nm and an emission wavelength of 590 nm. The % growth inhibition achieved by the compounds was calculated according to standard methods. The IC90 (expressed in μg/ml) was defined as the 90% inhibitory concentration for bacterial growth.

[2] = tested on: Listeria monocytogenes (ATCC49594); assay: Microtitre plate assay, IC90 for bacterial growth; format: cell-based; settings: for IC90: Listeria monocytogenes, ATCC49594, 90% inhibitory concentration for bacterial growth, read-out: IC90 LMO 49594; for IC90 LMO 49594: 90% inhibitory concentration for bacterial growth
Description: as §1, §2, §3

[3] = tested on: Streptococcus pneumoniae (ATCC6305); assay: Microtitre plate assay, IC90 for bacterial growth; format: cell-based; settings: for IC90 SPN 6305: 90% inhibitory concentration for bacterial growth; for IC90: Streptococcus pneumoniae, ATCC6305, 90% inhibitory concentration for bacterial growth, read-out: IC90 SPN 6305
Description: as §1, §2, §3

[4] = tested on: Streptococcus pyogens (ATCC8668); assay: Microtitre plate assay, IC90 for bacterial growth; format: cell-based; settings: for IC90 SPY 8668: 90% inhibitory concentration for bacterial growth; for IC90: Streptococcus, ATCC8668, 90% inhibitory concentration for bacterial growth, read-out: IC90 SPY 8668
Description: as §1, §2, §3

[5] = tested on: Enterococcus faecalis (ATCC29212); assay: Microtitre plate assay, IC90 for bacterial growth; format: cell-based; settings: for IC90 EFA 29212: 90% inhibitory concentration for bacterial growth; for IC90: Enterococcus faecalis, ATCC29212, 90% inhibitory concentration for bacterial growth, read-out: IC90 EFA 29212
Description: as §1, §2, §3

[6] = tested on: Streptococcus mutans (ATCC33402); assay: Microtitre plate assay, IC90 for bacterial growth; format: cell-based; settings: Streptococcus mutans, ATCC33402, 90% inhibitory concentration for bacterial growth, read-out: IC90 SMU 33402
Description: as §1, §2, §3

[7] = tested on: Staphylococcus aureus (ATCC25923); assay: Microtitre plate assay, IC90 for bacterial growth; format: cell-based; settings: for IC90: Staphylococcus aureus, ATCC25923, 90% inhibitory concentration for bacterial growth, read-out: IC90 STA 25923; for IC90 STA 25923: 90% inhibitory concentration for bacterial growth
Description: as §1, §2, §3

[8] = tested on: methicilline resistant Staphylococcus aureus (MRSA) (a clinical isolate from the University of Antwerp); assay: Microtitre plate assay, IC90 for bacterial growth; format: cell-based; settings: 90% inhibitory concentration for bacterial growth; for IC90: Staphylococcus aureus, MRSA, read-out: IC90 STA RMETHIC
Description: as §1, §2, §3

[9] = tested on: Bacillus subtilis (ATCC43639); assay: Microtitre plate assay, IC90 for bacterial growth; format: cell-based; settings: for IC90: Bacillus subtilis, ATCC43639, 90% inhibitory concentration for bacterial growth, read-out: IC90 BSU 43639; for IC90 BSU 43639: 90% inhibitory concentration for bacterial growth
Description: as §1, §2, §3

[10] = tested on: Pseudomonas aeruginosa (ATCC27853); assay: Microtitre plate assay, IC90 for bacterial growth; format: cell-based; settings: for IC90 PAE 27853: 90% inhibitory concentration for bacterial growth; for IC90: Pseudomonas aeruginosa, ATCC27853, 90% inhibitory concentration for bacterial growth, read-out: IC90 PAE 27853
Description: as §1, §2, §3

| Structure (SMILES) | IC90 STA 29213 [1] [µg/mL] | IC90 [2] [µg/mL] | IC90 SPN 6305 [3] [µg/mL] | IC90 SPY 8668 [4] [µg/mL] | IC90 EFA 29212 [5] [µg/mL] | IC90 [6] [µg/mL] | IC90 [7] [µg/mL] | IC90 [8] [µg/mL] | IC90 [9] [µg/mL] | IC90 PAE 27853 [10] [µg/mL] | melting point [°C] | IC90 LMO 49594 [2] [µg/mL] | IC90 STA 25923 [7] [µg/mL] | IC90 STA RMETHIC [8] [µg/mL] | IC90 BSU 43639 [9] [µg/mL] | IC90 [3] [µg/mL] | IC90 [4] [µg/mL] | IC90 [1] [µg/mL] | IC90 [5] [µg/mL] | IC90 [10] [µg/mL] |
| --- | --- | --- | --- | --- | --- | --- | --- | --- | --- | --- | --- | --- | --- | --- | --- | --- | --- | --- | --- | --- |
| COc1nc2ccc(Br)cc2cc1C(c1ccccc1)C1(c2cccc3ccccc23)CCN(C)CO1 (single isomer, unassigned) [Compound 1] | 55.4 (≈ 100 µM) | 44 (≈ 79.5 µM) | 5.5 (≈ 9.94 µM) | 44.0 (≈ 79.5 µM) | 55.4 (≈ 100 µM) | 44 (≈ 79.5 µM) | 55.4 (≈ 100 µM) | 55.4 (≈ 100 µM) | 44 (≈ 79.5 µM) | 44.0 (≈ 79.5 µM) | 112 |  |  |  |  |  |  |  |  |  |
| COc1nc2ccc(-c3ccccc3)cc2cc1C(c1ccccc1)C1(c2cccc3ccccc23)CCN(C)CO1 (single isomer, unassigned) [Compound 2] | 55.1 (≈ 100 µM) |  | 5.5 (≈ 9.99 µM) | 55.1 (≈ 100 µM) | 55.1 (≈ 100 µM) |  |  |  |  | 55.1 (≈ 100 µM) |  | 55.1 (≈ 100 µM) | 55.1 (≈ 100 µM) | 55.1 (≈ 100 µM) | 55.1 (≈ 100 µM) |  |  |  |  |  |
| COc1nc2ccc(Cl)cc2cc1C(c1ccccc1)C1(c2cccc3ccccc23)CCN(C)CO1 (single isomer, unassigned) [Compound 3] | 12.8 (≈ 25.1 µM) |  |  |  |  |  |  |  |  |  |  |  |  |  |  |  |  |  |  |  |
| COc1ccc2nc(OC)c(C(c3ccccc3)C3(c4cccc5ccccc45)CCN(C)CO3)cc2c1 (single isomer, unassigned) [Compound 4] | 50.5 (≈ 100 µM) |  |  |  | 50.5 (≈ 100 µM) | 20.1 (≈ 39.8 µM) |  | 50.5 (≈ 100 µM) |  | 50.5 (≈ 100 µM) |  | 25.3 (≈ 50.1 µM) | 50.5 (≈ 100 µM) |  | 50.5 (≈ 100 µM) | 1 (≈ 1.98 µM) | 20.1 (≈ 39.8 µM) |  |  |  |
| COc1nc2ccc(C)cc2cc1C(c1ccccc1)C1(c2cccc3ccccc23)CCN(C)CO1 (single isomer, unassigned) [Compound 5] |  | 48.9 (≈ 100 µM) | 10.9 (≈ 22.3 µM) | 8.7 (≈ 17.8 µM) |  | 24.5 (≈ 50.1 µM) | 48.9 (≈ 100 µM) | 48.9 (≈ 100 µM) | 48.9 (≈ 100 µM) |  |  |  |  |  |  |  |  | 48.9 (≈ 100 µM) | 48.9 (≈ 100 µM) | 48.9 (≈ 100 µM) |
| COc1nc2ccc(-c3ccco3)cc2cc1C(c1ccccc1)C1(c2cccc3ccccc23)CCN(C)CO1 (single isomer, unassigned) [Compound 6] |  |  | 2.7 (≈ 4.99 µM) |  |  |  | 13.6 (≈ 25.2 µM) |  | 13.6 (≈ 25.2 µM) |  |  |  |  | 54.1 (≈ 100 µM) |  |  | 13.6 (≈ 25.2 µM) | 13.6 (≈ 25.2 µM) | 13.6 (≈ 25.2 µM) | 13.6 (≈ 25.2 µM) |
| COc1nc2ccc(Br)cc2cc1C(c1ccccc1)C1(c2cccc3ccccc23)CCN(C)CO1 (single isomer, unassigned) [Compound 7] | 13.9 (≈ 25.1 µM) |  | 13.9 (≈ 25.1 µM) | 13.9 (≈ 25.1 µM) | 13.9 (≈ 25.1 µM) |  |  |  |  | 13.9 (≈ 25.1 µM) | 108 |  |  |  |  |  |  |  |  |  |
| COc1nc2ccc(-c3ccccc3)cc2cc1C(c1ccccc1)C1(c2cccc3ccccc23)CCN(C)CO1 (single isomer, unassigned) [Compound 9] |  | 55.1 (≈ 100 µM) |  |  |  |  | 55.1 (≈ 100 µM) | 55.1 (≈ 100 µM) | 55.1 (≈ 100 µM) |  |  |  |  |  |  | 4.9 (≈ 8.9 µM) | 55.1 (≈ 100 µM) | 55.1 (≈ 100 µM) | 55.1 (≈ 100 µM) | 55.1 (≈ 100 µM) |
